Source: PubChem BioAssay AID651990 (The Scripps Research Institute Molecular Screening Center, 2013)
Active and inactive are the calls of the source. No rule for the calls is given here.

What was measured:
[1] = molecular target: Acyl-protein thioesterase 2 (Homo sapiens) (UniProt O95372); test: LYPLA1 and LYPLA2 inhibitor potency, dose response, gel-based ABPP, fluorescence, HEK293T proteome (AID 651990); settings: HEK293T soluble proteome, gel-based ABPP FP-PEG-Rh fluorescence; LYPLA2
[2] = molecular target: Acyl-protein thioesterase 1 (Homo sapiens) (UniProt O75608); test: as above; settings: HEK293T soluble proteome, gel-based ABPP FP-PEG-Rh fluorescence; LYPLA1
Sequence of Acyl-protein thioesterase 1 (Homo sapiens) (O75608 whole entry, looked up): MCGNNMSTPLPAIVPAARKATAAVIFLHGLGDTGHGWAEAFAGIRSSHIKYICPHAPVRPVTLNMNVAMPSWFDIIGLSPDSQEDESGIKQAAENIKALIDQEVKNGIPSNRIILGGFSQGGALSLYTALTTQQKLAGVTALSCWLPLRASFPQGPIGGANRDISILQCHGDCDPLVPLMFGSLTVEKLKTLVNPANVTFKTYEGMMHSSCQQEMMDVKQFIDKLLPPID

Sequence of Acyl-protein thioesterase 2 (Homo sapiens) (O95372 whole entry, looked up): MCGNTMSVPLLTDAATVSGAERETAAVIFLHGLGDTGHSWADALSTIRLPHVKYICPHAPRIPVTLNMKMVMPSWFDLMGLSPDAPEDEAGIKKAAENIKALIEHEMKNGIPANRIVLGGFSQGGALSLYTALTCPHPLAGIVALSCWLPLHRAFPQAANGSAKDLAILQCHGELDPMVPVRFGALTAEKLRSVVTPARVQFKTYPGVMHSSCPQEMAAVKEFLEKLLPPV

IC50 [1] | IC50 [2] | Structure (SMILES)
144 nM | > 3 µM (inactive) | COc1ccc(N2CCN(C(=O)c3cc4c(s3)-c3ccccc3S(=O)(=O)C4)CC2)cc1
> 3000 nM (inactive) |  | O=C(CN1CCN(C(=O)c2ccco2)CC1)Nc1cc(C(F)(F)F)ccc1Cl
